According to US12509451B2, “Heteroaryl amide inhibitors of CD38” (NAPA THERAPEUTICS LTD., priority 2020, dated 2025):
pIC50: −log10 of the molar value.

Assays:
[1] = target: T1, CD38 NAD+ hydrolase activity in NH7-dCas9 cells (Jurkat clone) (Homo sapiens, UniProt P28907); assay: Fluorescence-based NAD+ hydrolase activity assay with human T cell line NH7-dCas9 cells-Jurkat clone (Assay 1); settings: read-out: Assay 1 Arithmetic mean IC50
T1 construct: The assay utilized CD38 expressing NH7-dCas9 cells (Jurkat clone); host or cells: NH7-dCas9 cells (Jurkat clone)
T1 sequence (P28907 1-300): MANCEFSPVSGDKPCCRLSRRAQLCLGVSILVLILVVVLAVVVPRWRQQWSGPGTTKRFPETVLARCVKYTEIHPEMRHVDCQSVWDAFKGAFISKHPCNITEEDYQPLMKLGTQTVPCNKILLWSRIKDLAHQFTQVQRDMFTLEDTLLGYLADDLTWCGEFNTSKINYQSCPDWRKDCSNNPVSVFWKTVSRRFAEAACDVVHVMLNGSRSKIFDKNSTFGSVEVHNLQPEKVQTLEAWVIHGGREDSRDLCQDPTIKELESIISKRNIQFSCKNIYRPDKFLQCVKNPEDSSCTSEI
Experimental: For the modified assay, the performance validation criteria of the assay as a High Throughput Screening (HTS): Z-factor within the plate was greater than 0.89 (optimal HTS z-factor >0.5) and the Intra-plate, inter-plate and day to day variability (CV) was less than 20%.
NAD+ hydrolase activity of a human T cell line treated with test compounds was measured using a fluorescence-based assay. NH7-dCas9 cells (Jurkat clone) were provided by the Weissman Lab (UCSF 1700 4th St., Byers Hall, Room 403B, San Francisco, CA 94158-2330). Briefly, cells were centrifuged, resuspended in 44 μl PBS/10^6 cells and plated in a 96 well black plate (CORNING) at a density of 1×10^6 per well.
Each test compound was received in a powder state and dissolved in DMSO as a 25 mM stock solution. Each test compound was serially diluted in order to generate a dose-response curve. The dilution series of each test compound in DMSO was prepared at 50 times the concentrations to be assayed. Each test compound was diluted to generate a 5-fold dilution series of 8 concentrations from 20 μM to 0.256 nM in order to assay 8 final concentrations ranging from 400 nM to 25.6 pM. One μl of the 50× concentration compound series was added to each well of the plate containing 1×10^6 cells in PBS.
Each plate had the following intra plate controls: 3 wells containing cells treated with vehicle only (DMSO), 3 wells of cells treated with the reference compound 78c at a final concentration of 50 nM and 2 wells containing only PBS (used as a background value).
(§1) The reaction was started by adding nicotinamide 1,N^6-etheno-adenine dinucleotide (Sigma Aldrich) to reach a final concentration of 80 µM. The samples were excited at 321-15 nm, and the emission of fluorescence was measured at 410-20 nm at 37° C. every minute for 1 hr in a Clariostar® microplate reader (BMG LABTECH). NAD+ hydrolase activity was calculated as the slope of the linear portion of the fluorescence-time curve using the MARS data analysis software (BMG LABTECH). The data were uploaded in the Collaborative Drug Design (CDD) Software and for each compound the IC50 was calculated by the software. Each compound was tested in 3 independent experiments on 3 separate days to establish the reproducibility of the results. For each plate, the z-factor was also calculated as a plate quality using the CDD software.

[2] = target: T2, recombinant human CD38 Protein (Homo sapiens, UniProt P28907); assay: Fluorescence-based NAD+ hydrolase activity assay with human recombinant CD38 protein (Assay 3); format: biochemical; settings: read-out: Assay 3 Arithmetic mean IC50
T2 construct: purchased R&D System
T2 sequence (P28907 1-300): T1 sequence (P28907 1-300)
Experimental: This protocol was modified from the following references (Muller et al. (1983); (Schultz et al. (2018); (Matalonga et al. (2017); and de Oliveira et al. (2018), supra.
(§2) NAD+ hydrolase activity of the human recombinant CD38 protein treated with test compounds was measured using a fluorescence-based assay. Briefly, recombinant human CD38 Protein (R&D System) was resuspended in 44 μl/well of Sucrose-Tris Buffer (Sucrose 0.25 M, Tris pH 7.4 40 mM) and plated in a 96-well black plate (CORNING) at a density of 10 ng/well.
Each test compound was received in a powder state and dissolved in DMSO as a 25 mM stock solution. Each test compound was serially diluted in order to generate a dose-response curve. The dilution series of each test compound in DMSO was prepared at 50× the concentrations to be assayed. Each test compound was diluted to generate a 5-fold dilution series of 8 concentrations from 20 μM to 0.256 nM in order to assay 8 final concentrations ranging from ranging from 400 nM to 25.6 pM. One μl of the 50× concentration compound series was added to each well of the plate containing 10 ng protein in Sucrose-Tris buffer.
as §1, with “started” for “started by”, “nm” for “nm,”, “Each compound was tested in 3 independent experiments on 3 separate days to establish the reproducibility of the results.” left out

[3] = target: T2, recombinant human CD38 Protein; assay: Fluorescence-based NAD+ cyclase activity assay with human recombinant CD38 protein (Assay 2); format: biochemical; settings: read-out: Assay 2 Arithmetic mean IC50
Experimental: This protocol was modified from the de Oliveira et al., 2018 reference, supra.
as §2, with “cyclase” for “hydrolase”, “125” for “10”
Each test compound was received in a powder state and dissolved in DMSO as a 25 mM stock solution. Each test compound was serially diluted in order to generate a dose-response curve. The dilution series of each test compound in DMSO was prepared at 50 times the concentrations to be assayed. Each test compound was diluted to generate a 5-fold dilution series of 8 concentrations from 100 μM to 32 nM in order to assay 8 final concentrations ranging from 2 μM to 0.64 nM. One μl of the 50× concentration compound series was added to each well of the plate containing 125 ng of protein in Sucrose-Tris buffer.
The reaction was started adding nicotinamide guanine dinucleotide (NGD+) (Sigma Aldrich) to reach a final concentration of 150 µM. The samples were excited at 337-15 nm, and the emission of fluorescence was measured at 442-20 nm at 37° C. every minute for 1 hr in a Clariostar microplate reader (BMG LABTECH). NAD+ cyclase activity was calculated as the slope of the linear portion of the fluorescence-time curve using the MARS data analysis software (BMG LABTECH). The data were uploaded in the Collaborative Drug Design (CDD) Software, and for each compound the IC50 was calculated by the software. For each plate, the z-factor was also calculated as a plate quality using the CDD software.

[4] = target: T3, recombinant mouse CD38 Protein (Mus musculus, UniProt P56528); assay: Fluorescence-based NAD+ hydrolase activity assay with mouse recombinant CD38 protein (Assay 5); format: biochemical; settings: read-out: Assay 5 Arithmetic mean IC50
T3 construct: purchased R&D System
T3 sequence (P56528 1-304): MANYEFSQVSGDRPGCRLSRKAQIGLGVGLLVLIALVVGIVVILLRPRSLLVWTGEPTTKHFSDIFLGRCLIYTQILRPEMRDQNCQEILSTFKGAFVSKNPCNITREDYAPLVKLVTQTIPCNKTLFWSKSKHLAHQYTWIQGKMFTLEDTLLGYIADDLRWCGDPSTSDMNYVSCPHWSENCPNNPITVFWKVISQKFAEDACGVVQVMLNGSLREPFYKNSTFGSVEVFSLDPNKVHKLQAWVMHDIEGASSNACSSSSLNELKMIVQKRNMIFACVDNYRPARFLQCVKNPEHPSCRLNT
Experimental: This protocol was modified from the following references: Muller et al. (1983); Schultz et al. (2018); Matalonga et al. (2017); and de Oliveira et al. (2018), supra.
as §2, with “mouse” for “human”, “96 well” for “96-well”, “2.5” for “10”
Each test compound was received in a powder state and dissolved in DMSO as a 25 mM stock solution. Each test compound was serially diluted in order to generate a dose-response curve. The dilution series of each test compound in DMSO was prepared at 50 times the concentrations to be assayed. Each test compound was diluted to generate a 5-fold dilution series of 8 concentrations from 20 μM to 0.256 nM in order to assay 8 final concentrations ranging from 400 nM to 25.6 pM. One μl of the 50× concentration compound series was added to each well of the plate containing 2.5 ng of protein in Sucrose-Tris buffer.
Each plate had the following intra plate controls: 3 wells containing cells treated with vehicle only (DMSO), 3 wells of cells treated with the reference compounds 78c at a final concentration of 50 nM and 2 wells containing only Sucrose-Tris buffer (used as a background value).
as §1, with “started” for “started by”, “nm” for “nm,”, “Clariostar Microplate®” for “Clariostar® microplate”

## Cc1cc(NC(=O)c2cccc(-n3ccnc3)n2)cc(C#N)n1 [Compound 4]
[1]
  pIC50: > 9.00
[2]
  pIC50: > 9.00
[3]
  pIC50: 6.00 to 7.29

## O=C(Nc1cc(F)nc(F)c1)c1cccc(-n2ccnc2)n1 [Compound 5]
[1]
  pIC50: > 9.00
[2]
  pIC50: > 9.00
[3]
  pIC50: 6.00 to 7.29

## CCOC(=O)c1cc(NC(=O)c2cccc(-n3ccnc3)n2)ccn1 [Compound 6]
[1]
  pIC50: > 9.00
[2]
  pIC50: 7.30 to 9.00
[3]
  pIC50: 6.00 to 7.29

## COCCNc1cc(NC(=O)c2cccc(-n3ccnc3)n2)ccn1 [Compound 10]
[1]
  pIC50: 7.30 to 9.00
[2]
  pIC50: 7.30 to 9.00

## NC(=O)c1cc(NC(=O)c2cccc(-n3ccnc3)n2)ccn1 [Compound 17]
[1]
  pIC50: 7.30 to 9.00
[2]
  pIC50: 7.30 to 9.00
[4]
  pIC50: 7.30 to 9.00

## CCN(C(C)=O)c1ccc(NC(=O)c2cccc(-n3ccnc3)n2)cn1 [Compound 19]
[1]
  pIC50: 7.30 to 9.00
[2]
  pIC50: 7.30 to 9.00
[4]
  pIC50: 7.30 to 9.00

## O=C(O)c1ccc(NC(=O)c2cccc(-n3ccnc3)n2)cn1 [Compound 21]
[1]
  pIC50: 7.30 to 9.00
[2]
  pIC50: 7.30 to 9.00
[4]
  pIC50: 7.30 to 9.00

## CNC(=O)c1cc(NC(=O)c2cccc(-n3ccnc3)n2)ccn1 [Compound 23]
[1]
  pIC50: 7.30 to 9.00
[2]
  pIC50: 7.30 to 9.00

## O=C(Nc1ccccn1)c1cccc(-n2ccnc2)n1 [Compound 25]
[1]
  pIC50: 6.00 to 7.29
[2]
  pIC50: 6.00 to 7.29

## Cc1cncn1-c1cccc(C(=O)Nc2cccnc2)n1 [Compound 26]
[1]
  pIC50: 6.00 to 7.29
[2]
  pIC50: 6.00 to 7.29
[4]
  pIC50: 6.00 to 7.29

## Cc1cc(C(=O)Nc2ccncc2)nc(-c2cncn2C)c1 [Compound 44]
[1]
  pIC50: > 9.00
[2]
  pIC50: 7.30 to 9.00
[4]
  pIC50: 7.30 to 9.00

## O=C(Nc1ccc(C(F)(F)F)nc1)c1cccc(-c2cncs2)n1 [Compound 46]
[2]
  pIC50: 7.30 to 9.00

## Cc1ccc(C(=O)Nc2cccnc2)nc1-n1ccnc1 [Compound 58, 6-(1H-imidazol-1-yl)-5-methyl-N-(pyridin-3-yl)picolinamide]
[1]
  pIC50: 6.00 to 7.29
[2]
  pIC50: 6.00 to 7.29
[4]
  pIC50: 7.30 to 9.00

## COc1ccc(C(=O)Nc2cccnc2)nc1-n1ccnc1 [Compound 60]
[1]
  pIC50: 6.00 to 7.29
[2]
  pIC50: 6.00 to 7.29
[4]
  pIC50: 7.30 to 9.00

## COc1ccc(-n2ccnc2)nc1C(=O)Nc1cccnc1 [Compound 63]
[1]
  pIC50: 7.30 to 9.00
[2]
  pIC50: 7.30 to 9.00
[4]
  pIC50: 7.30 to 9.00

## Nc1ccc(-n2ccnc2)nc1C(=O)Nc1ccncc1 [Compound 64, 3-amino-6-(1H-imidazol-1-yl)-N-(pyridin-4-yl)picolinamide]
[1]
  pIC50: > 9.00
[2]
  pIC50: 7.30 to 9.00
[4]
  pIC50: > 9.00

## Nc1ccc(-n2ccnc2)nc1C(=O)Nc1ccnc(F)c1 [Compound 65]
[1]
  pIC50: > 9.00
[2]
  pIC50: > 9.00
[4]
  pIC50: > 9.00

## Nc1ccc(-n2ccnc2)nc1C(=O)Nc1ccnc(C(F)(F)F)c1 [Compound 66]
[1]
  pIC50: > 9.00
[2]
  pIC50: 7.30 to 9.00
[4]
  pIC50: > 9.00

## CNc1cc(C(=O)Nc2cccnc2)nc(-n2ccnc2)c1 [Compound 68]
[1]
  pIC50: > 9.00
[2]
  pIC50: > 9.00

## O=C(Nc1cccnc1)c1ccnc(-n2ccnc2)n1 [Compound 69]
[1]
  pIC50: > 9.00
[2]
  pIC50: 7.30 to 9.00

## O=C(Nc1cccnc1)c1cncc(-n2ccnc2)n1 [Compound 70]
[1]
  pIC50: > 9.00
[2]
  pIC50: > 9.00
[3]
  pIC50: 5.00 to 6.00
